Common to all, as to assay: EC50 assay: Ba/F3 stable cell proliferation (CCK-8, 72 h)
Common to all, as to type: cell-based

Experiment [1] deals with T1, Ba/F3 stable cells (Homo sapiens, UniProt P00533, T790M/L858R, cells depend on it).
T1 construct: EC50 Ba/F3-EGFR L858R-T790M; other: Ba/F3-EGFR L858R-T790M cells, 72 h, CCK-8
The conditions noted are these: Ba/F3-EGFR L858R-T790M cells. The method, then:
(§1) 4,000 Ba/F3 stable cells/90 μL/well were plated onto 96-well cell culture plate (Grenier, Cat.No. 655180) and incubated at 37° C. with a humidified atmosphere of 5% CO2 for 2 h. Then the cells were treated with 10 μL compounds at serial titration. The final DMSO concentration is 0.1%. The cells treated with 0.1% DMSO (Vetec, Cat.No.V900090) as a positive control (Max), and medium with 0.1% DMSO was as a negative control (Min). Incubated the cells at 37° C. for 72 h. 10 μL the cell proliferation reagent CCK-8 (Dojindo, Cat.No. CK04 1000T) was added into each well and incubated the plate at 37° C. for 4 hours, the GD value was measured by SPECTRAmax plus (Molecular Devices) at 450 nm. Data processing with Graphpad 7.0.

The target in experiment [2] is T2, Ba/F3 stable cells (Homo sapiens, UniProt P00533, INS763FQEA, cells depend on it).
T2 construct: EC50 Ba/F3-EGFR A763-Y764insFQEA; other: Ba/F3-EGFR A763-Y764insFQEA cells, 72 h, CCK-8
The conditions noted are these: Ba/F3-EGFR A763-Y764insFQEA cells. The method, then: as §1

In experiment [3] the target is T3, Ba/F3 stable cells (Homo sapiens, UniProt P00533, DUP771-773, cells depend on it).
T3 construct: EC50 Ba/F3-EGFR H773-V774insNPH; other: Ba/F3-EGFR H773-V774insNPH cells, 72 h, CCK-8
The conditions noted are these: Ba/F3-EGFR H773-V774insNPH cells. The method, then: as §1

For experiment [4], the target named is T4, Ba/F3 stable cells (Homo sapiens, UniProt P00533, DUP767-769, cells depend on it).
T4 construct: EC50 Ba/F3-EGFR V769-D770insASV; other: Ba/F3-EGFR V769-D770insASV cells, 72 h, CCK-8
The conditions noted are these: Ba/F3-EGFR V769-D770insASV cells. The procedure: as §1

Experiment [5] addresses T5, Ba/F3 stable cells (Homo sapiens, UniProt P00533, DUP768-770, cells depend on it).
T5 construct: EC50 Ba/F3-EGFR D770-N771insSVD; other: Ba/F3-EGFR D770-N771insSVD cells, 72 h, CCK-8
The following applies: Ba/F3-EGFR D770-N771insSVD cells. The procedure: as §1

Experiment [6] addresses T6, Ba/F3 stable cells (Homo sapiens, UniProt P04626, DUP772-775, cells depend on it).
T6 construct: EC50 Ba/F3-HER2 A775-G776insYVMA; other: Ba/F3-HER2 A775-G776insYVMA cells, 72 h, CCK-8
The following applies: Ba/F3-HER2 A775-G776insYVMA cells. The procedure:
as §1

pEC50: −log10 of the molar value. A value given as a limit tells only on which side of the number the result lay.

T4 sequence (P00533 with tags, fused parts or gaps DUP767-769): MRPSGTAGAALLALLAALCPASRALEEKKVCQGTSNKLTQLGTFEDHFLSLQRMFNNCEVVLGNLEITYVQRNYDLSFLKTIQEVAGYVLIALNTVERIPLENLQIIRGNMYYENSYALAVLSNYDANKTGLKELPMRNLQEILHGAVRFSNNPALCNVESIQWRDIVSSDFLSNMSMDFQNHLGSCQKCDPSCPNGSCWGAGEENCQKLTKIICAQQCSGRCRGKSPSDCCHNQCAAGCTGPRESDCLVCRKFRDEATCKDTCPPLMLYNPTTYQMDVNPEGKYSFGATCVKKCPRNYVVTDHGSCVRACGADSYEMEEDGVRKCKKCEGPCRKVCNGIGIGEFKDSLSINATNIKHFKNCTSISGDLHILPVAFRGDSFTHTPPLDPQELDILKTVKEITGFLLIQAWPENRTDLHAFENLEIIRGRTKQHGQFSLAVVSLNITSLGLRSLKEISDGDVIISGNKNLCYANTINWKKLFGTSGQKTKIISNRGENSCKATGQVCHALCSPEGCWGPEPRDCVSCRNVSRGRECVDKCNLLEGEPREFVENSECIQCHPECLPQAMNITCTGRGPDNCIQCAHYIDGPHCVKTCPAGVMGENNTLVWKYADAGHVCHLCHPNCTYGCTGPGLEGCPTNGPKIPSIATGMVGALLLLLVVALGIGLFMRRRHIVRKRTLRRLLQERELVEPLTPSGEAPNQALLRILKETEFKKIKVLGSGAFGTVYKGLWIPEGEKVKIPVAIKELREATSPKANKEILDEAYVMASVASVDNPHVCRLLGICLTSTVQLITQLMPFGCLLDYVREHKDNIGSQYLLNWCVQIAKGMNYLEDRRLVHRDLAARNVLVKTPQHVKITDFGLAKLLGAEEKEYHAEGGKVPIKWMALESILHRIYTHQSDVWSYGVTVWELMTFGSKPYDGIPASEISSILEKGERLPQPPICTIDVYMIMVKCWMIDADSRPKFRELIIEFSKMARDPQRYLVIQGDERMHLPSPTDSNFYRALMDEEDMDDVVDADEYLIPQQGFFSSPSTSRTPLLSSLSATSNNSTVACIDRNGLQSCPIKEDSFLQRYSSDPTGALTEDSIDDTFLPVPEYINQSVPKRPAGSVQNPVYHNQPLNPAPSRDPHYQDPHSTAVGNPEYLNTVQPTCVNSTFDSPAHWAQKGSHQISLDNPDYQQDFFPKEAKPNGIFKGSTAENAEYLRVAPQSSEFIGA
T6 sequence (P04626 with tags, fused parts or gaps DUP772-775): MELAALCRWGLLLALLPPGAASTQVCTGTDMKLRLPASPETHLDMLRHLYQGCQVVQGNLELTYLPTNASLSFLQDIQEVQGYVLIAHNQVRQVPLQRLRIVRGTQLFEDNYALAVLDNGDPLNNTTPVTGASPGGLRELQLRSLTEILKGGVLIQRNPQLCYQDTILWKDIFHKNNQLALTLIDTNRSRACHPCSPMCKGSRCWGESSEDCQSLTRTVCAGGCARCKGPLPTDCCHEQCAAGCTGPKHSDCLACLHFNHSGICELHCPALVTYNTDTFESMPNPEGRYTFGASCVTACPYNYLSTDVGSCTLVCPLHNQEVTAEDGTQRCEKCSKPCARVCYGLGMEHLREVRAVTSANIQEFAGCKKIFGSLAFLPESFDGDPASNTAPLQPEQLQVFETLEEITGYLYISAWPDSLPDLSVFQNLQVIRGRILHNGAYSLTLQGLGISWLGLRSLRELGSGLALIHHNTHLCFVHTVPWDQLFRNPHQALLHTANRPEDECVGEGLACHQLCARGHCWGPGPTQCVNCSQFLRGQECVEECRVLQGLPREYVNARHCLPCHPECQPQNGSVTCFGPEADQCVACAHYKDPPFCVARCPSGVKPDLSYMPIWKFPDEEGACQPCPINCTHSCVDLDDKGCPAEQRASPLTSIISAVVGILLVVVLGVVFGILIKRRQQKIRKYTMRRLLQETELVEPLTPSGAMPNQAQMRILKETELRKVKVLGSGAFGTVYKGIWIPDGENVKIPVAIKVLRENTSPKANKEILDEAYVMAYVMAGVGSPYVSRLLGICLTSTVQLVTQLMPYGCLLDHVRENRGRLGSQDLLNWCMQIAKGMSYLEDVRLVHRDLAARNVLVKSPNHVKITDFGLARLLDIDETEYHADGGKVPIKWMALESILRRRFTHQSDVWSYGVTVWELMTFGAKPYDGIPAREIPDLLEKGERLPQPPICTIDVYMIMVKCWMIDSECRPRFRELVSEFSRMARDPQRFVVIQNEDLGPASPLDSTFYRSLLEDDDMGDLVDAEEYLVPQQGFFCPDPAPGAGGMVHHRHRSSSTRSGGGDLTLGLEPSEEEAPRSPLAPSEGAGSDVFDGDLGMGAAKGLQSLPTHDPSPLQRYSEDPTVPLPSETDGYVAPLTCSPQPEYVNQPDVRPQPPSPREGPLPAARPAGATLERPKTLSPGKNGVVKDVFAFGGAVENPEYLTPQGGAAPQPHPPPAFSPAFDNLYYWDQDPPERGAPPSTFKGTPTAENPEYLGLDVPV
T1 sequence (P00533 whole entry T790M/L858R): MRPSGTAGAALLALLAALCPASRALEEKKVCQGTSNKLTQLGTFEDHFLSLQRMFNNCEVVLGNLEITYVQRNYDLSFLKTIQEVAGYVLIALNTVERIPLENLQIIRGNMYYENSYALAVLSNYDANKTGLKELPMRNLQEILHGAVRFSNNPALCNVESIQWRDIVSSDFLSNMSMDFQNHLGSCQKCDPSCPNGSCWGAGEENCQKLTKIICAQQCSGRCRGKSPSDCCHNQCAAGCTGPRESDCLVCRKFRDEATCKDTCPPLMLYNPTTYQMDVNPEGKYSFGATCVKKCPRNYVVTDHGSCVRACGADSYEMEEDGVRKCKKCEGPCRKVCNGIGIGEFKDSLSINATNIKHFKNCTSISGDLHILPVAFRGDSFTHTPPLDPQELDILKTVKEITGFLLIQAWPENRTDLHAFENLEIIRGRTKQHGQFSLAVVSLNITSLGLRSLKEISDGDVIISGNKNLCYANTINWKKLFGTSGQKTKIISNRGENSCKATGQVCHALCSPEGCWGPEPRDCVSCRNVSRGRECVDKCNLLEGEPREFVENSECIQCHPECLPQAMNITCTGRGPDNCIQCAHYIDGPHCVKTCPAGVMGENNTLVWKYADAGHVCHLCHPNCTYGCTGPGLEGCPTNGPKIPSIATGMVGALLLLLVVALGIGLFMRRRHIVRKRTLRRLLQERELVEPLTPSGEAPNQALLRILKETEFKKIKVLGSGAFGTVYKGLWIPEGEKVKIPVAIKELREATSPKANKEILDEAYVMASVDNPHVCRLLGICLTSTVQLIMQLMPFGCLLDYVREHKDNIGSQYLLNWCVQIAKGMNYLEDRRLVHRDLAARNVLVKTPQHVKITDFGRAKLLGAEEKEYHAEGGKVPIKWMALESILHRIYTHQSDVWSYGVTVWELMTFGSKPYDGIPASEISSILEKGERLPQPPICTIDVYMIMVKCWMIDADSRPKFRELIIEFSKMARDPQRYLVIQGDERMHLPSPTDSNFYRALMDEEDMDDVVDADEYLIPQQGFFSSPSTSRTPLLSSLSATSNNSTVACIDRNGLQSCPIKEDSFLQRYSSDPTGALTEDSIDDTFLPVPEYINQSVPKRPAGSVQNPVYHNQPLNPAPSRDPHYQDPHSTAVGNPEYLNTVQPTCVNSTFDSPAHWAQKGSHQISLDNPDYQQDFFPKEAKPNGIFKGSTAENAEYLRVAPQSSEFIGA
T3 sequence (P00533 with tags, fused parts or gaps DUP771-773): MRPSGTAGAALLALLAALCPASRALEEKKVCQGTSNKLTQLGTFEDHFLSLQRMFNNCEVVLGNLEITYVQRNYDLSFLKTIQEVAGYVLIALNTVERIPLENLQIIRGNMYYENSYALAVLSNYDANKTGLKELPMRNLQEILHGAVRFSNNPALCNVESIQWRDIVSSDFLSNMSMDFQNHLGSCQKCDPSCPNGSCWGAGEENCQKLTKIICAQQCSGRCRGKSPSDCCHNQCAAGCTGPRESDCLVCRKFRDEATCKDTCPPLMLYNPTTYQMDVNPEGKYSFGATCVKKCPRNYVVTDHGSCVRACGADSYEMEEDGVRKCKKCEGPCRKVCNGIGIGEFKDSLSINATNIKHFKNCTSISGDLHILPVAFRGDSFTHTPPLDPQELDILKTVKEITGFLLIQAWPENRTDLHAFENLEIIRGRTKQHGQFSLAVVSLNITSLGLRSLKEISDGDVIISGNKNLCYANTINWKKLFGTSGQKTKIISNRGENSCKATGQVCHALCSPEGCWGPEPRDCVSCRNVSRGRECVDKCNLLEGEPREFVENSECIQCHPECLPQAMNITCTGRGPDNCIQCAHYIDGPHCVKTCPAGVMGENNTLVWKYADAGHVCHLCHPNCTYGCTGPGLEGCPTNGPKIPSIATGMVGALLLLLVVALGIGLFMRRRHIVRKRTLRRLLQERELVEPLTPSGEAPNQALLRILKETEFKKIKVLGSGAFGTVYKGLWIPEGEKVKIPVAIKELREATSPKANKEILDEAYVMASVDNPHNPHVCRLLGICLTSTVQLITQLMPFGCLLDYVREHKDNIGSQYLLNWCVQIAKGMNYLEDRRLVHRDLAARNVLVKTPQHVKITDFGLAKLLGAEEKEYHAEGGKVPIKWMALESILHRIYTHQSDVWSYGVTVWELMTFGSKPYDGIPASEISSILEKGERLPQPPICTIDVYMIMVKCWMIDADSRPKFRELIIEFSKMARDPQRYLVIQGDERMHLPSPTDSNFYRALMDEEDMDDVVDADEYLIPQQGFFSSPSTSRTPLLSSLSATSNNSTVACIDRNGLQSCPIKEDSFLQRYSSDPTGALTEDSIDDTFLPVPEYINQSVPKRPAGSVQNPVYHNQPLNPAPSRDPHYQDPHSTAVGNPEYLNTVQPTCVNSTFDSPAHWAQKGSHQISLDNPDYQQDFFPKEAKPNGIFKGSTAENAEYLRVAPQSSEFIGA

Take `C=CC(=O)NCC1COc2cc3ncnc(Nc4ccc(Cl)c(Cl)c4F)c3cc21` (stereo not drawn) [Compound 34, N-((4-((3,4-dichloro-2-fluorophenyl)amino)-6,7-dihydrofuro[3,2-g]quinazolin-6-yl)methyl)acrylamide]: the pEC50 at Ba/F3 stable cells [1] was less than 6.00; on Ba/F3 stable cells [2], not below 6.70; at Ba/F3 stable cells [3], not below 6.70; on Ba/F3 stable cells [4] it was 6.00 to 6.70; on Ba/F3 stable cells [5] it was 6.00 to 6.70; on Ba/F3 stable cells [6], not below 6.70.
On to `[2H]C([2H])([2H])n1cn/c(=N\c2ccc(Cl)c(Cl)c2F)c2cc3c(cc21)OCC3CNC(=O)C=C` (stereo not drawn) [Compound 35, (Z)—N-((4-((3,4-dichloro-2-fluorophenyl)imino)-1-trideuteriomethyl-1,4,6,7-tetrahydrofuro[3,2-g]quinazolin-6-yl)methyl)acrylamide], for which the pEC50 at Ba/F3 stable cells [1], at Ba/F3 stable cells [2], at Ba/F3 stable cells [3], on Ba/F3 stable cells [4], on Ba/F3 stable cells [5] and on Ba/F3 stable cells [6] was less than 6.00 each time.
For `C=C(F)C(=O)N1CC(c2cc3c(Nc4ccc(Cl)c(Cl)c4F)ncnc3cc2O[C@H]2CCOC2)C1` [Compound 37, (S)-1-(3-(4-((3,4-dichloro-2-fluorophenyl)amino)-7-((tetrahydrofuran-3-yl)oxy)quinazolin-6-yl)azetidin-1-yl)-2-fluoroprop-2-en-1-one], the pEC50 is 6.00 to 6.70 on Ba/F3 stable cells [1]; not below 6.70 at Ba/F3 stable cells [2]; 6.00 to 6.70 on Ba/F3 stable cells [3]; not below 6.70 at Ba/F3 stable cells [4]; 6.00 to 6.70 on Ba/F3 stable cells [5]; 6.00 to 6.70 on Ba/F3 stable cells [6].
In the case of `C=C(F)C(=O)N1CC(c2cc3c(Nc4ccc(Cl)c(Cl)c4F)ncnc3cc2OC)C1` [Compound 38, 1-(3-(4-((3,4-dichloro-2-fluorophenyl)amino)-7-methoxyquinazolin-6-yl)azetidin-1-yl)-2-fluoroprop-2-en-1-one], the pEC50 at Ba/F3 stable cells [1] is less than 6.00; at Ba/F3 stable cells [2] it was not below 6.70; on Ba/F3 stable cells [3], 6.00 to 6.70; on Ba/F3 stable cells [4], 6.00 to 6.70; on Ba/F3 stable cells [5] it was less than 6.00; on Ba/F3 stable cells [6] it was less than 6.00.
`[2H]C([2H])([2H])Oc1cc2ncnc(Nc3ccc(Cl)c(Cl)c3F)c2cc1C1CN(C(=O)C(=C)F)C1` [Compound 39, 1-(3-(4-((3,4-dichloro-2-fluorophenyl)amino)-7-(methoxy-d3)quinazolin-6-yl)azetidin-1-yl)-2-fluoroprop-2-en-1-one]: the pEC50 is less than 6.00 at Ba/F3 stable cells [1]; not below 6.70 at Ba/F3 stable cells [2]; less than 6.00 on Ba/F3 stable cells [3]; 6.00 to 6.70 on Ba/F3 stable cells [4]; less than 6.00 on Ba/F3 stable cells [5]; less than 6.00 at Ba/F3 stable cells [6].
Consider `C=C(F)C(=O)N[C@H]1C[C@@H](Oc2cc3c(Nc4ccc(Cl)c(Cl)c4F)ncnc3cc2OC)C1` [Compound 40, N-((1s,3s)-3-((4-((3,4-dichloro-2-fluorophenyl)amino)-7-methoxyquinazolin-6-yl)oxy)cyclobutyl)-2-fluoroacrylamide], for which the pEC50 was 6.00 to 6.70 at Ba/F3 stable cells [1]; not below 6.70 on Ba/F3 stable cells [2]; 6.00 to 6.70 on Ba/F3 stable cells [3]; not below 6.70 on Ba/F3 stable cells [4]; 6.00 to 6.70 at Ba/F3 stable cells [5]; 6.00 to 6.70 at Ba/F3 stable cells [6].
With `C#CC(=O)N1CC(c2cc3c(Nc4ccc(OCc5ccccc5)c(Cl)c4F)ncnc3cc2OC)C1` [Compound 41, 1-(3-(4-((4-(benzyloxy)-3-chloro-2-fluorophenyl)amino)-7-methoxyquinazolin-6-yl)azetidin-1-yl)prop-2-yn-1-one], the pEC50 is less than 6.00 on Ba/F3 stable cells [1]; 6.00 to 6.70 on Ba/F3 stable cells [2]; less than 6.00 at Ba/F3 stable cells [3]; less than 6.00 on Ba/F3 stable cells [4]; less than 6.00 on Ba/F3 stable cells [5]; less than 6.00 on Ba/F3 stable cells [6].

One may read the pEC50 as the negative decadic logarithm of the EC50, by convention in mol/L. Low readings indicate a high EC50, high ones a low EC50.
